Experiments:
Format in all cases: in vivo
[1] = test system: redroot pigweed (Amaranthus retroflexus, AMR); experiment: Pre-emerge test, redroot pigweed; details: 250 g ai/ha, 14 days after application, rating scale 0-100 (0 no damage, 100 complete death)
From the text: (§1) A standard greenhouse herbicide activity screening system was used to evaluate the herbicidal efficacy and crop safety of these test compounds. Seven broadleaf weed species including redroot pigweed (Amaranthus retroflexus, AMR), velvetleaf (Abutilon theophrasti, ABT), sicklepod (Cassia obtusifolia, CAO), ivyleaf morningglory (Ipomoea hederacea, IPH), lambsquarters (Chenopodium album, CHA), common ragweed (Ambrosia artemisiifolia L., AML), and cocklebur (Xanthium strumariunt, XAS) were used as test species. Four grass weed species including green foxtail (Setaria viridis, SEV), barnyardgrass (Echinachloa crus-galli, ECC), johnsongrass (Sorghum halepense, SOH), and large crabgrass (Digitaria sanguinalis, DIS) were also used. In addition, four crop species, field corn (Zea mays L., var. Dekalb 535, CORN), soybean (Glycine max L., var. Pella 86, SOY), upland rice (Oryza sp., var.Tebonnet, RICE), and wheat (Triticum aestivum) were included all plants were grown in 10 cm square plastic pots which were filled with a sandy loam soil mix.
(§2) For pre-emerge tests, seeds were planted one day prior to application of the test compounds. All test compounds were dissolved in acetone and applied to the test pots in a volume of 187 l/ha. Test materials were applied at rates ranging from 8 g ai/ha to 1000 g ai/ha using a track sprayer equipped with a TJ8001E even flow flat fan spray nozzle. This application simulates a typical commercial field herbicide application.
(§3) At 14 days after application of the test materials, phytotoxicity ratings were recorded. A rating scale of 0-100 was used for both pre and post emerge tests as previously described in Research Methods in Weed Science, 2nd edition, B, Truelove, Ed., Southern Weed Science Society, Auburn University, Auburn, Ala., 1977. Briefly, “0” corresponds to no damage and “100” corresponds to complete death of all plants in the test unit. This scale was used both to determine efficacy against weed species and damage to crop species. Herbicide activity data for various compounds of this invention, which are shown by compound No. in Tables 1-3, are shown in Tables 5 and 6.

[2] = test system: velvetleaf (Abutilon theophrasti, ABT); experiment: Pre-emerge test, velvetleaf; details: 250 g ai/ha, 14 days after application, rating scale 0-100 (0 no damage, 100 complete death)
From the text: as §1, §2, §3

[3] = test system: sicklepod (Cassia obtusifolia, CAO); experiment: Pre-emerge test, sicklepod; details: 250 g ai/ha, 14 days after application, rating scale 0-100 (0 no damage, 100 complete death)
From the text: as §1, §2, §3

[4] = test system: ivyleaf morningglory (Ipomoea hederacea, IPH); experiment: Pre-emerge test, ivyleaf morningglory; details: 250 g ai/ha, 14 days after application, rating scale 0-100 (0 no damage, 100 complete death)
From the text: as §1, §2, §3

[5] = test system: lambsquarters (Chenopodium album, CHA); experiment: Pre-emerge test, lambsquarters; details: 250 g ai/ha, 14 days after application, rating scale 0-100 (0 no damage, 100 complete death)
From the text: as §1, §2, §3

[6] = test system: common ragweed (Ambrosia artemisiifolia L., AML); experiment: Pre-emerge test, common ragweed; details: 250 g ai/ha, 14 days after application, rating scale 0-100 (0 no damage, 100 complete death)
From the text: as §1, §2, §3

[7] = test system: cocklebur (Xanthium strumariunt, XAS); experiment: Pre-emerge test, cocklebur; details: 250 g ai/ha, 14 days after application, rating scale 0-100 (0 no damage, 100 complete death)
From the text: as §1, §2, §3

[8] = test system: green foxtail (Setaria viridis, SEV); experiment: Pre-emerge test, green foxtail; details: 250 g ai/ha, 14 days after application, rating scale 0-100 (0 no damage, 100 complete death)
From the text: as §1, §2, §3

[9] = test system: barnyardgrass (Echinachloa crus-galli, ECC); experiment: Pre-emerge test, barnyardgrass; details: 250 g ai/ha, 14 days after application, rating scale 0-100 (0 no damage, 100 complete death)
From the text: as §1, §2, §3

[10] = test system: johnsongrass (Sorghum halepense, SOH); experiment: Pre-emerge test, johnsongrass; details: 250 g ai/ha, 14 days after application, rating scale 0-100 (0 no damage, 100 complete death)
From the text: as §1, §2, §3

[11] = test system: large crabgrass (Digitaria sanguinalis, DIS); experiment: Pre-emerge test, large crabgrass; details: 250 g ai/ha, 14 days after application, rating scale 0-100 (0 no damage, 100 complete death)
From the text: as §1, §2, §3

[12] = test system: field corn (Zea mays L., var. Dekalb 535, CORN); experiment: Pre-emerge test, crop damage field corn; details: pre-emerge, 250 g ai/ha, 14 days after application, rating scale 0-100 (0 no damage, 100 complete death)
From the text: as §1, §2, §3

[13] = test system: soybean (Glycine max L., var. Pella 86, SOY); experiment: Pre-emerge test, crop damage soybean; details: pre-emerge, 250 g ai/ha, 14 days after application, rating scale 0-100 (0 no damage, 100 complete death)
From the text: as §1, §2, §3

[14] = test system: upland rice (Oryza sp., var.Tebonnet, RICE); experiment: Pre-emerge test, crop damage upland rice; details: pre-emerge, 250 g ai/ha, 14 days after application, rating scale 0-100 (0 no damage, 100 complete death)
From the text: as §1, §2, §3

[15] = test system: wheat (Triticum aestivum); experiment: Pre-emerge test, crop damage wheat; details: pre-emerge, 250 g ai/ha, 14 days after application, rating scale 0-100 (0 no damage, 100 complete death)
From the text: as §1, §2, §3

[16] = test system: redroot pigweed (Amaranthus retroflexus, AMR); experiment: Post-emerge test, redroot pigweed; details: 250 g ai/ha, 14 days after application, rating scale 0-100 (0 no damage, 100 complete death)
From the text: as §1, §2
(§4) For post-emerge tests, seeds were planted 8-21 days prior to the test to allow emergence and good foliage development prior to application of the test substances. At the time of the post-emerge application, plants of all species were usually at the 2-3 leaf stage of development. In the postemerge test, a commercial non-ionic surfactant was also included (0.25% v/v) to enhance wetting of the leaf surfaces of target plants.
as §3

[17] = test system: velvetleaf (Abutilon theophrasti, ABT); experiment: Post-emerge test, velvetleaf; details: 250 g ai/ha, 14 days after application, rating scale 0-100 (0 no damage, 100 complete death)
From the text: as §1, §2, §4, §3

[18] = test system: sicklepod (Cassia obtusifolia, CAO); experiment: Post-emerge test, sicklepod; details: 250 g ai/ha, 14 days after application, rating scale 0-100 (0 no damage, 100 complete death)
From the text: as §1, §2, §4, §3

[19] = test system: ivyleaf morningglory (Ipomoea hederacea, IPH); experiment: Post-emerge test, ivyleaf morningglory; details: 250 g ai/ha, 14 days after application, rating scale 0-100 (0 no damage, 100 complete death)
From the text: as §1, §2, §4, §3

[20] = test system: lambsquarters (Chenopodium album, CHA); experiment: Post-emerge test, lambsquarters; details: 250 g ai/ha, 14 days after application, rating scale 0-100 (0 no damage, 100 complete death)
From the text: as §1, §2, §4, §3

[21] = test system: common ragweed (Ambrosia artemisiifolia L., AML); experiment: Post-emerge test, common ragweed; details: 250 g ai/ha, 14 days after application, rating scale 0-100 (0 no damage, 100 complete death)
From the text: as §1, §2, §4, §3

[22] = test system: cocklebur (Xanthium strumariunt, XAS); experiment: Post-emerge test, cocklebur; details: 250 g ai/ha, 14 days after application, rating scale 0-100 (0 no damage, 100 complete death)
From the text: as §1, §2, §4, §3

[23] = test system: green foxtail (Setaria viridis, SEV); experiment: Post-emerge test, green foxtail; details: 250 g ai/ha, 14 days after application, rating scale 0-100 (0 no damage, 100 complete death)
From the text: as §1, §2, §4, §3

[24] = test system: barnyardgrass (Echinachloa crus-galli, ECC); experiment: Post-emerge test, barnyardgrass; details: 250 g ai/ha, 14 days after application, rating scale 0-100 (0 no damage, 100 complete death)
From the text: as §1, §2, §4, §3

[25] = test system: johnsongrass (Sorghum halepense, SOH); experiment: Post-emerge test, johnsongrass; details: 250 g ai/ha, 14 days after application, rating scale 0-100 (0 no damage, 100 complete death)
From the text: as §1, §2, §4, §3

[26] = test system: large crabgrass (Digitaria sanguinalis, DIS); experiment: Post-emerge test, large crabgrass; details: 250 g ai/ha, 14 days after application, rating scale 0-100 (0 no damage, 100 complete death)
From the text: as §1, §2, §4, §3

[27] = test system: field corn (Zea mays L., var. Dekalb 535, CORN); experiment: Post-emerge test, crop damage field corn; details: post-emerge, 250 g ai/ha, 14 days after application, rating scale 0-100 (0 no damage, 100 complete death)
From the text: as §1, §2, §4, §3

[28] = test system: soybean (Glycine max L., var. Pella 86, SOY); experiment: Post-emerge test, crop damage soybean; details: post-emerge, 250 g ai/ha, 14 days after application, rating scale 0-100 (0 no damage, 100 complete death)
From the text: as §1, §2, §4, §3

[29] = test system: upland rice (Oryza sp., var.Tebonnet, RICE); experiment: Post-emerge test, crop damage upland rice; details: post-emerge, 250 g ai/ha, 14 days after application, rating scale 0-100 (0 no damage, 100 complete death)
From the text: as §1, §2, §4, §3

[30] = test system: wheat (Triticum aestivum); experiment: Post-emerge test, crop damage wheat; details: post-emerge, 250 g ai/ha, 14 days after application, rating scale 0-100 (0 no damage, 100 complete death)
From the text: as §1, §2, §4, §3

`CC1C(=O)Nc2c(-c3ncc(C(F)(F)F)cc3Cl)c(F)cc3c2N1C(=O)CO3` (stereo not drawn) [1-64] was tested, and the “Pre-emerge Herbicidal Activity AMR (phytotoxicity rating)” value [1] was 100, the “Pre-emerge Herbicidal Activity ABT (phytotoxicity rating)” value [2] was 100 and the “Pre-emerge Herbicidal Activity CAO (phytotoxicity rating)” value [3] was 100. The “Pre-emerge Herbicidal Activity IPH (phytotoxicity rating)” value [4] was 100, the “Pre-emerge Herbicidal Activity CHA (phytotoxicity rating)” value [5] was 100 and the “Pre-emerge Herbicidal Activity AML (phytotoxicity rating)” value [6] was 100. For the same compound, the “Pre-emerge Herbicidal Activity XAS (phytotoxicity rating)” value [7] was 100, the “Pre-emerge Herbicidal Activity SEV (phytotoxicity rating)” value [8] was 100 and the “Pre-emerge Herbicidal Activity ECC (phytotoxicity rating)” value [9] was 100. The “Pre-emerge Herbicidal Activity SOH (phytotoxicity rating)” value [10] was 100, the “Pre-emerge Herbicidal Activity DIS (phytotoxicity rating)” value [11] was 100 and the “Pre-emerge crop damage CORN (phytotoxicity rating)” value [12] was 100. For the same compound, the “Pre-emerge crop damage SOY (phytotoxicity rating)” value [13] was 99, the “Pre-emerge crop damage RICE (phytotoxicity rating)” value [14] was 95 and the “Pre-emerge crop damage WHEAT (phytotoxicity rating)” value [15] was 90. For the same compound, the “Post-emerge Herbicidal Activity AMR (phytotoxicity rating)” value [16] was 100, the “Post-emerge Herbicidal Activity ABT (phytotoxicity rating)” value [17] was 100 and the “Post-emerge Herbicidal Activity CAO (phytotoxicity rating)” value [18] was 85. The “Post-emerge Herbicidal Activity IPH (phytotoxicity rating)” value [19] was 100, the “Post-emerge Herbicidal Activity CHA (phytotoxicity rating)” value [20] was 100 and the “Post-emerge Herbicidal Activity AML (phytotoxicity rating)” value [21] was 95. For the same compound, the “Post-emerge Herbicidal Activity XAS (phytotoxicity rating)” value [22] was 100, the “Post-emerge Herbicidal Activity SEV (phytotoxicity rating)” value [23] was 100 and the “Post-emerge Herbicidal Activity ECC (phytotoxicity rating)” value [24] was 100. The “Post-emerge Herbicidal Activity SOH (phytotoxicity rating)” value [25] was 85, the “Post-emerge Herbicidal Activity DIS (phytotoxicity rating)” value [26] was 40 and the “Post-emerge crop damage CORN (phytotoxicity rating)” value [27] was 5. The “Post-emerge crop damage SOY (phytotoxicity rating)” value [28] was 100, the “Post-emerge crop damage RICE (phytotoxicity rating)” value [29] was 0 and the “Post-emerge crop damage WHEAT (phytotoxicity rating)” value [30] was 15.

`Cn1nc(-c2c(F)cc3c4c2NC(=O)C(Cl)N4C(=O)CO3)c(Cl)c1OC(F)F` (stereo not drawn) [1-79] was tested, and the “Pre-emerge Herbicidal Activity AMR (phytotoxicity rating)” value [1] was 100, the “Pre-emerge Herbicidal Activity ABT (phytotoxicity rating)” value [2] was 75 and the “Pre-emerge Herbicidal Activity CAO (phytotoxicity rating)” value [3] was 60. For the same compound, the “Pre-emerge Herbicidal Activity IPH (phytotoxicity rating)” value [4] was 60, the “Pre-emerge Herbicidal Activity CHA (phytotoxicity rating)” value [5] was 100 and the “Pre-emerge Herbicidal Activity AML (phytotoxicity rating)” value [6] was 99. The “Pre-emerge Herbicidal Activity XAS (phytotoxicity rating)” value [7] was 65, the “Pre-emerge Herbicidal Activity SEV (phytotoxicity rating)” value [8] was 15 and the “Pre-emerge Herbicidal Activity ECC (phytotoxicity rating)” value [9] was 35. The “Pre-emerge Herbicidal Activity SOH (phytotoxicity rating)” value [10] was 50, the “Pre-emerge Herbicidal Activity DIS (phytotoxicity rating)” value [11] was 80 and the “Pre-emerge crop damage CORN (phytotoxicity rating)” value [12] was 30. The “Pre-emerge crop damage SOY (phytotoxicity rating)” value [13] was 40, the “Pre-emerge crop damage RICE (phytotoxicity rating)” value [14] was 30 and the “Pre-emerge crop damage WHEAT (phytotoxicity rating)” value [15] was 30. For the same compound, the “Post-emerge Herbicidal Activity AMR (phytotoxicity rating)” value [16] was 70, the “Post-emerge Herbicidal Activity ABT (phytotoxicity rating)” value [17] was 75 and the “Post-emerge Herbicidal Activity CAO (phytotoxicity rating)” value [18] was 0. The “Post-emerge Herbicidal Activity IPH (phytotoxicity rating)” value [19] was 60, the “Post-emerge Herbicidal Activity CHA (phytotoxicity rating)” value [20] was 65 and the “Post-emerge Herbicidal Activity AML (phytotoxicity rating)” value [21] was 80. For the same compound, the “Post-emerge Herbicidal Activity XAS (phytotoxicity rating)” value [22] was 0, the “Post-emerge Herbicidal Activity SEV (phytotoxicity rating)” value [23] was 65 and the “Post-emerge Herbicidal Activity ECC (phytotoxicity rating)” value [24] was 25. For the same compound, the “Post-emerge Herbicidal Activity SOH (phytotoxicity rating)” value [25] was 0, the “Post-emerge Herbicidal Activity DIS (phytotoxicity rating)” value [26] was 0 and the “Post-emerge crop damage CORN (phytotoxicity rating)” value [27] was 0. For the same compound, the “Post-emerge crop damage SOY (phytotoxicity rating)” value [28] was 0, the “Post-emerge crop damage RICE (phytotoxicity rating)” value [29] was 0 and the “Post-emerge crop damage WHEAT (phytotoxicity rating)” value [30] was 0.
